# Experimental data: ChEMBL document CHEMBL1139760, “Studies on a series of potent, orally bioavailable, 5-HT(1) receptor ligands” (Bioorg Med Chem Lett, 2007)
# Active and inactive are the calls of the source. No cut-off for these calls is given here.
# Key:
# [1] = Half life in rat at 1 mg/kg, iv; type: ADME, organism-based; parameters: dose 1 mg/kg, route intravenous; conditions: in vivo
# [2] = target: T1, 5-hydroxytryptamine receptor 1D (Homo sapiens, UniProt P28221); experiment: Intrinsic activity at human recombinant 5HT1D receptor expressed in CHO cells by [35S]GTP-gamma-S binding assay relative to 5-hydroxytryptamine; type: functional, cell-based
# [3] = Volume of distribution at steady state in rat at 1 mg/kg, iv; type: ADME, organism-based; parameters: dose 1 mg/kg, route intravenous; conditions: in vivo, read-out: Vdss
# [4] = target: T2, 5-hydroxytryptamine receptor 1B (Homo sapiens, UniProt P28222); experiment: Intrinsic activity at human recombinant 5HT1B receptor expressed in CHO cells by [35S]GTP-gamma-S binding assay relative to 5-hydroxytryptamine; type: functional, cell-based
# [5] = target: Sodium-dependent serotonin transporter (Rattus norvegicus, UniProt P31652)
# Description: Inhibition of [3H]5-HT uptake at SERT in rat cortical synaptosomes
# [6] = Selectivity for human recombinant 5HT1A receptor over rat cortical SERT
# [7] = target: T1, 5-hydroxytryptamine receptor 1D; experiment: Displacement of [3H]5-HT from human recombinant 5HT1D receptor expressed in CHO cells; type: cell-based
# Liver microsomes [8] = experiment: Metabolic stability assessed as intrinsic clearance in rat liver microsomes; type: ADME, Microsome
# [9] = Selectivity for human recombinant 5HT1B receptor over rat cortical SERT
# [10] = Clearance in rat blood at 1 mg/kg, iv; type: ADME, organism-based; parameters: dose 1 mg/kg, route intravenous
# Liver microsomes [11] = experiment: Metabolic stability assessed as intrinsic clearance in human liver microsomes; type: ADME, Microsome
# [12] = target: T3, 5-hydroxytryptamine receptor 1A (Homo sapiens, UniProt P08908); experiment: Displacement of [3H]-WAY100635 from human recombinant 5HT1A receptor expressed in CHO cells
# T3 sequence (P08908 whole entry): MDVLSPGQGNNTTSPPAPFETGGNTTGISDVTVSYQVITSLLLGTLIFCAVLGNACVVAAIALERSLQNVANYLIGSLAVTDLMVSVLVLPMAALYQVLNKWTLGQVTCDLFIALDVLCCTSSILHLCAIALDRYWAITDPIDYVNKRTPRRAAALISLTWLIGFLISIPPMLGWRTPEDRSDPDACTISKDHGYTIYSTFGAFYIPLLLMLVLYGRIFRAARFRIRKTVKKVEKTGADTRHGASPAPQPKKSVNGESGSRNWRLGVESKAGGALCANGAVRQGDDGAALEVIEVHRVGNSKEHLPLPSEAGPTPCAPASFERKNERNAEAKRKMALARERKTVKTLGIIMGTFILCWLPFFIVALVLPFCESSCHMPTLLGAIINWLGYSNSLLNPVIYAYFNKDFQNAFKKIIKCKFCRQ
# [13] = Selectivity for human recombinant 5HT1D receptor over rat cortical SERT
# [14] = target: T3, 5-hydroxytryptamine receptor 1A; experiment: Displacement of [3H]WAY 100635 from human recombinant 5HT1A receptor expressed in CHO cells; type: cell-based
# [15] = target: T2, 5-hydroxytryptamine receptor 1B; experiment: Displacement of [3H]5-HT from human recombinant 5HT1B receptor expressed in CHO cells; type: cell-based
# [16] = target: T4, 5-hydroxytryptamine receptor 1A (Homo sapiens) (UniProt P08908); experiment: Intrinsic activity at human recombinant 5HT1A receptor expressed in CHO cells by [35S]GTP-gamma-S binding assay relative to 5-hydroxytryptamine; type: functional, cell-based
# T4 sequence (whole entry): T3 sequence (P08908 whole entry)
# Cytochrome P450 2C9 = Cytochrome P450 2C9 (Homo sapiens, UniProt P11712); experiment: Inhibition of CYP2C9; type: ADME
# Cytochrome P450 2D6 = Cytochrome P450 2D6 (Homo sapiens, UniProt P10635); experiment: Inhibition of CYP2D6; type: ADME
# Cytochrome P450 2C19 = Cytochrome P450 2C19 (Homo sapiens, UniProt P33261); experiment: Inhibition of CYP2C19; type: ADME
# Cytochrome P450 3A4 = Cytochrome P450 3A4 (Homo sapiens, UniProt P08684); experiment: Inhibition of CYP3A4; type: ADME
# Cytochrome P450 1A2 = target: T5, Cytochrome P450 1A2 (Homo sapiens, UniProt P05177); experiment: Inhibition of CYP1A2; type: ADME
# T5 sequence (P05177 whole entry): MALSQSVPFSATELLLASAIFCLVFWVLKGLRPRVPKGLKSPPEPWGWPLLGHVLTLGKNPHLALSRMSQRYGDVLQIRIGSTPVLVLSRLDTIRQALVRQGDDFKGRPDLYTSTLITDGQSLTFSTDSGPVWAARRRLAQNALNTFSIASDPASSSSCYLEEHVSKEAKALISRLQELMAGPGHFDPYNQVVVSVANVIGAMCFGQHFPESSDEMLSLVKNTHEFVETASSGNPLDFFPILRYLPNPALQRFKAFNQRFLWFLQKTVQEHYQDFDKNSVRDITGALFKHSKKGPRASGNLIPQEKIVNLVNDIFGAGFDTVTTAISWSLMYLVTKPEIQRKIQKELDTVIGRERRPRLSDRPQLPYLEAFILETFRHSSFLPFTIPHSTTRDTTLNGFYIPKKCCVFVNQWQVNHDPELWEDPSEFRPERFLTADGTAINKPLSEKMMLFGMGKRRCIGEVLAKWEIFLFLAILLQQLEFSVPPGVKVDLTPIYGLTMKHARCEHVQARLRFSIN
# [17] = Oral bioavailability in rat at 3 mg/kg; type: ADME, organism-based; conditions: in vivo
# [18] = Ratio of drug level in brain to blood in rat at 3 mg/kg, po; type: ADME, organism-based; parameters: dose 3 mg/kg, route oral
# [19] = target: Histamine H2 receptor (Homo sapiens) (UniProt P25021); experiment: Inhibition of histamine H2 receptor at 1 uM
# [20] = target: T6, Muscarinic acetylcholine receptor M1 (Homo sapiens) (UniProt P11229); experiment: Inhibition of muscarinic M1 receptor at 1 uM
# T6 sequence (whole entry): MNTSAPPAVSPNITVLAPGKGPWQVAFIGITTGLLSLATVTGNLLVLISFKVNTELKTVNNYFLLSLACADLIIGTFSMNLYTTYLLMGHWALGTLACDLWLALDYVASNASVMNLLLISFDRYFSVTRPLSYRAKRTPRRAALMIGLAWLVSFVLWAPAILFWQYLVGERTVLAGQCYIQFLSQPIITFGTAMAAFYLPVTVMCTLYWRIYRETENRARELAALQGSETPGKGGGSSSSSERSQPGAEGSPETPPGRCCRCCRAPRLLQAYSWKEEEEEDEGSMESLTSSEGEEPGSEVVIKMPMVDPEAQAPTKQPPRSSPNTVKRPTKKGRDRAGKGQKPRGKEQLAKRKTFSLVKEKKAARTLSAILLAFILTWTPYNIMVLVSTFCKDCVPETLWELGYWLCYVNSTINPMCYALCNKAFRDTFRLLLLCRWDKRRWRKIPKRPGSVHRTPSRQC
# [21] = target: T7, Alpha-1A adrenergic receptor (Homo sapiens) (UniProt P35348); experiment: Inhibition of adrenergic alpha1 receptor at 1 uM
# T7 sequence (whole entry): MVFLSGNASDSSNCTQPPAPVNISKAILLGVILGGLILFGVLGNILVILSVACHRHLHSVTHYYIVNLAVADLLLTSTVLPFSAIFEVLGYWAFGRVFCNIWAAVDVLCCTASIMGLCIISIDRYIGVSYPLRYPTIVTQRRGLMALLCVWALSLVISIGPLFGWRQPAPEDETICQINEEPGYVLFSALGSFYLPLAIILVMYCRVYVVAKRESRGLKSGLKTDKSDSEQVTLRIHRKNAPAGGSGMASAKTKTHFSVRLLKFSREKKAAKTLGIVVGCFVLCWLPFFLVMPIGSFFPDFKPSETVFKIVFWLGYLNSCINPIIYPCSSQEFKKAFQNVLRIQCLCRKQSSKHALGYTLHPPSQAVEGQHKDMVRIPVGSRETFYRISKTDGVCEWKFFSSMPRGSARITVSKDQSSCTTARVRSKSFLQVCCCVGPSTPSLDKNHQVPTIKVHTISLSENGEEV
# T1 sequence (P28221 whole entry): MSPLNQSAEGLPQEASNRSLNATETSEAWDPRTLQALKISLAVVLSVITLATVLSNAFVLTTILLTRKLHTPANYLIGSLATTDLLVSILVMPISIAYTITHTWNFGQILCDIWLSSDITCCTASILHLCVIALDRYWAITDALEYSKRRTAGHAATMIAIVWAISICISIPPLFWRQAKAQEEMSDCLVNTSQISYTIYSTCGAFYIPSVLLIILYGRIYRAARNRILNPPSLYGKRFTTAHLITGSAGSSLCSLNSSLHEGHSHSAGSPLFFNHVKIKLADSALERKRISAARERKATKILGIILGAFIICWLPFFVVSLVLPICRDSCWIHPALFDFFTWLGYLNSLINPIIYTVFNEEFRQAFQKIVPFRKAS
# Chain of Sodium-dependent serotonin transporter (P31652 whole entry): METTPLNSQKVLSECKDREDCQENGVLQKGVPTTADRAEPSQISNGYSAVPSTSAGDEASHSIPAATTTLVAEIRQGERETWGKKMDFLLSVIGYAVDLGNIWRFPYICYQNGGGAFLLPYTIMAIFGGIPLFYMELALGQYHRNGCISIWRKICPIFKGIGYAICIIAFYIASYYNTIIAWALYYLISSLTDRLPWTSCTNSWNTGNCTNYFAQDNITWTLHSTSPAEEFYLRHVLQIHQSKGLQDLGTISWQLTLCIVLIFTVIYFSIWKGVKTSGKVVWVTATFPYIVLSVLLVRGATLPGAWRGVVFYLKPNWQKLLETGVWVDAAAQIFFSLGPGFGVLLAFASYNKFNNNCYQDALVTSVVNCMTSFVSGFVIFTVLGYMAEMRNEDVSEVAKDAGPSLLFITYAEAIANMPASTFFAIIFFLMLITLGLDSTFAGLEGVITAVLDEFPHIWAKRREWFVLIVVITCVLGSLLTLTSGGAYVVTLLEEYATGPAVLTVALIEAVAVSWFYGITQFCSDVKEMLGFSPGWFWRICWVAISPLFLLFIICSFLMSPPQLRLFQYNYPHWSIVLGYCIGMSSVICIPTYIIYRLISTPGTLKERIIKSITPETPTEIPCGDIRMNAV
# Chain of Cytochrome P450 2C19 (P33261 whole entry): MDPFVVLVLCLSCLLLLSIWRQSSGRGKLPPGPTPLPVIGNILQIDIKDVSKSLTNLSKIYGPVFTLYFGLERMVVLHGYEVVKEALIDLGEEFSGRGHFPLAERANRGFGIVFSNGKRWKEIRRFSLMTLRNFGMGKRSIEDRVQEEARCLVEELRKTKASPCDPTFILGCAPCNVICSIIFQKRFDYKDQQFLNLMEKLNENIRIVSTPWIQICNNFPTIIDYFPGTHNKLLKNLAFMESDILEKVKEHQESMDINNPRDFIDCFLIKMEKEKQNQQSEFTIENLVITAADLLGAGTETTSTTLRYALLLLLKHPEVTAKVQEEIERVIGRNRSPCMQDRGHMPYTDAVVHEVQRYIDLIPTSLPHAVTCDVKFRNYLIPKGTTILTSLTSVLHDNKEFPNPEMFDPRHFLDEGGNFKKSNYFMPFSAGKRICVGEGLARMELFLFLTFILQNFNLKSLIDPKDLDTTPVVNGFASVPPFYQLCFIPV
# T2 sequence (P28222 whole entry): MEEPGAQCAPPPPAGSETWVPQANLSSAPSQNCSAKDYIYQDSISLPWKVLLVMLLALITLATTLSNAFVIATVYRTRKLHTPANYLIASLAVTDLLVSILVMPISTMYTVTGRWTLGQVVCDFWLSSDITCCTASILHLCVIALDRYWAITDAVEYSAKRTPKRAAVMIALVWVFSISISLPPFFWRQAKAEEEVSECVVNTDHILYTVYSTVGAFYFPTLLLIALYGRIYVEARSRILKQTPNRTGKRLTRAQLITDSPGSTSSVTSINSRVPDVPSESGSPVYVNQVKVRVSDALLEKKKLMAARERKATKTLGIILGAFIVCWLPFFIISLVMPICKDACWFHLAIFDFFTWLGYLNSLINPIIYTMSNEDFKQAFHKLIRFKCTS
# Chain of Cytochrome P450 2D6 (P10635 whole entry): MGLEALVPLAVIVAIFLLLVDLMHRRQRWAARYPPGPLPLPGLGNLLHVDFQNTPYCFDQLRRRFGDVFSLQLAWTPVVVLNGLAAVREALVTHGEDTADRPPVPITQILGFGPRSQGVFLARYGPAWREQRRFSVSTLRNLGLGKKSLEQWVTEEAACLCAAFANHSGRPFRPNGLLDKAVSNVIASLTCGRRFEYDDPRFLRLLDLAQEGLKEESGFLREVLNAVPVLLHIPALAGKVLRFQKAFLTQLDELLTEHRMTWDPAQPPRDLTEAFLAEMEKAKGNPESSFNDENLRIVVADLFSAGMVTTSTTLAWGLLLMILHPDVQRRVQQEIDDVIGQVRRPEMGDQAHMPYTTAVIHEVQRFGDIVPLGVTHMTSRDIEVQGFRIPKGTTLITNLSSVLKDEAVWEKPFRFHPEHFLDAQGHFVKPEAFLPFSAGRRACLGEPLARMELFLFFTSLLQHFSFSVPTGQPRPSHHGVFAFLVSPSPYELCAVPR
# Chain of Cytochrome P450 3A4 (P08684 whole entry): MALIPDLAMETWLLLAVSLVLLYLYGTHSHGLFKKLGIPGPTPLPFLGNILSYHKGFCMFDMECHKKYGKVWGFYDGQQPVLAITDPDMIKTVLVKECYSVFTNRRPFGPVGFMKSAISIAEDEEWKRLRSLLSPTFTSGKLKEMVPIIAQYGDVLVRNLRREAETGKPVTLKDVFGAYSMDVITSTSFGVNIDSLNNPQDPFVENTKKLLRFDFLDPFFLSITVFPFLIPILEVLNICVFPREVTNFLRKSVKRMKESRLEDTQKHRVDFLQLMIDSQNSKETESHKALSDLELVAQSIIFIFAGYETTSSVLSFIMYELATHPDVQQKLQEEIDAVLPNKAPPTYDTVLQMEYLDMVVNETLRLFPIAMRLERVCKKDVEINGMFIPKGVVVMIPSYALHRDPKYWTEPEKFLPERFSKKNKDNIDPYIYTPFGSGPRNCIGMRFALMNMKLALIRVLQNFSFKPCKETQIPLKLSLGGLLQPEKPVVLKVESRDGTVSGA
# Chain of Cytochrome P450 2C9 (P11712 whole entry): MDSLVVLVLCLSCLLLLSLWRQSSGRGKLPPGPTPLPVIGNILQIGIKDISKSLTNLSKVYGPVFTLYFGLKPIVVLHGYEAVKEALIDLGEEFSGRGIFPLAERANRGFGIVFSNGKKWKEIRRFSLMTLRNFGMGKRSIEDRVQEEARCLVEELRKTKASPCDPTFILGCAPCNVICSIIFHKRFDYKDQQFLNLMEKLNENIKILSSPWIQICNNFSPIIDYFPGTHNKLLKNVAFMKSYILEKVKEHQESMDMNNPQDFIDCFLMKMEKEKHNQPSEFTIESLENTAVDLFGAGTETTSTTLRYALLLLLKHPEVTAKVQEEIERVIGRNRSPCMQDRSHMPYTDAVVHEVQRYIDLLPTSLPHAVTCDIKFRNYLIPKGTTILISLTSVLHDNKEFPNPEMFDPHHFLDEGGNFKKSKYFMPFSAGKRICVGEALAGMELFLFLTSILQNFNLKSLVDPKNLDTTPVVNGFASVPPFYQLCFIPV
# Chain of Histamine H2 receptor (Homo sapiens) (P25021 whole entry): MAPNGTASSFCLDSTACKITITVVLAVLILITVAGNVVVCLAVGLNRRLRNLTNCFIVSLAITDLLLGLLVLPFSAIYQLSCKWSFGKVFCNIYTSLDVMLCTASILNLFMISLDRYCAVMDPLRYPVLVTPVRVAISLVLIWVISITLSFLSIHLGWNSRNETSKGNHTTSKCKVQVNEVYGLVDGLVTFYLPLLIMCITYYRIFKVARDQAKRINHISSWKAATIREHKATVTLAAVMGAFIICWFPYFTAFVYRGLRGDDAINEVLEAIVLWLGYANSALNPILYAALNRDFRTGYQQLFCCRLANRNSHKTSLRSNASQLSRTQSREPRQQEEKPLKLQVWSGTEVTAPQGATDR
half-life [1] [h],Intrinsic activity [2],Intrinsic activity [4],Ki [5] [nM],Ki [7] [nM],clearance [10] [mL/min/kg],Ki [12] [nM],Ki [14] [nM],Ki [15] [nM],Intrinsic activity [16],IC50 (Cytochrome P450 2C9) [nM],IC50 (Cytochrome P450 2D6) [nM],IC50 (Cytochrome P450 2C19) [nM],IC50 (Cytochrome P450 3A4) [nM],IC50 (Cytochrome P450 1A2) [nM],Structure (SMILES),other results
1.6,0.6,0.4,126,1.58,31,0.251,3.16,3.98,0.1,–,–,–,–,–,CCN1C(=O)COc2ccc(CC3CCN(CCOc4cccc5nc(C)ccc45)CC3)cc21,Vd [3]: 2.5 L/kg; Ratio pKi [6]: 30; CL (Liver microsomes [8]): 7.7 mL/min/g; Ratio pKi [9]: 30; CL (Liver microsomes [11]): 2.8 mL/min/g; Ratio pKi [13]: 30
–,–,–,–,2,–,1.26,31.6,25.1,–,4000,14000,5000,9000,17000,Cc1ccc2c(OCCN3CCN(Cc4ccc5c(c4)N(CCc4ccccc4)C(=O)CO5)CC3)cccc2n1,–
2,0.6,0.4,79.4,0.501,34,–,3.16,1.58,0,> 16000,> 16000,> 16000,> 16000,> 16000,Cc1ccc2c(OCCN3CCN(Cc4ccc5c(c4F)N(C)C(=O)CO5)CC3)cccc2n1,bioavailability [17]: 65%; Kp [18]: 2.7
1.3,–,0.5,39.8,2.51,57,0.398,6.31,6.31,0,–,–,–,–,–,Cc1ccc2c(OCCN3CCC(Cc4ccc5c(c4)N(C)C(=O)CO5)CC3)cccc2n1,Vd [3]: 4.2 L/kg; Activity [19]: Active; Activity [20]: Active; bioavailability [17]: 35%; CL (Liver microsomes [8]): 4.9 mL/min/g; CL (Liver microsomes [11]): 0.9 mL/min/g; Activity [21]: Active; Kp [18]: 1.3
–,0.5,0.4,158,2,–,0.251,25.1,31.6,0.1,18000,–,–,–,–,CCCN1C(=O)COc2ccc(CN3CCN(CCOc4cccc5nc(C)ccc45)CC3)cc21,–
1.3,0.5,0.5,–,–,50,–,–,–,0.1,–,–,–,–,–,Cc1ccc2c(OCCN3CCC(Cc4ccc5c(c4)NC(=O)CO5)CC3)cccc2n1,Vd [3]: 4.4 L/kg; bioavailability [17]: 40%; CL (Liver microsomes [8]): 3.4 mL/min/g; CL (Liver microsomes [11]): 1.2 mL/min/g
–,–,–,1580,2.51,–,2,–,31.6,–,–,–,–,–,–,Cc1ccc2c(OCCN3CCN(Cc4ccc5c(c4)N(CC(C)C)C(=O)CO5)CC3)cccc2n1,–
2.8,0.7,0.5,200,1.26,23,–,2.51,1.58,0.1,> 9000,> 9000,> 9000,> 9000,> 9000,CCN1C(=O)COc2ccc(CN3CCN(CCOc4cccc5nc(C)ccc45)CC3)c(F)c21,bioavailability [17]: 34%; Kp [18]: 1.2
–,–,–,158,3.16,–,1.26,–,31.6,–,12000,–,16000,–,4000,CCCCN1C(=O)COc2ccc(CN3CCN(CCOc4cccc5nc(C)ccc45)CC3)cc21,–
–,–,0.6,25.1,10,–,1.58,63.1,100,0,–,–,–,–,–,Cc1ccc2c(OCCN3CCN(Cc4ccc5c(c4)NC(=O)CO5)CC3)cccc2n1,–
–,0.8,0.3,–,–,–,–,–,–,–,–,–,–,–,–,COc1ccc(NC(=O)c2ccc(-c3ccc(-c4noc(C)n4)cc3C)cc2)cc1N1CCN(C)CC1,–
–,0.3,0.4,2000,1,–,1.26,39.8,25.1,0.1,14000,–,–,–,18000,CCN1C(=O)COc2ccc(CN3CCN(CCOc4cccc5nc(C)ccc45)CC3)cc21,–
–,–,0.8,100,0.501,–,1.58,10,7.94,0,> 20000,> 20000,> 20000,> 20000,> 20000,Cc1ccc2c(OCCN3CCN(Cc4ccc5c(c4)N(C)C(=O)CO5)CC3)cccc2n1,–
–,–,–,316,6.31,–,3.98,–,63.1,–,7000,15000,11000,12000,11000,Cc1ccc2c(OCCN3CCN(Cc4ccc5c(c4)N(Cc4ccccc4)C(=O)CO5)CC3)cccc2n1,–
–,–,0.6,100,3.98,–,0.631,5.01,39.8,0,–,–,–,–,–,Cc1ccc2c(OCCN3CCC(Cc4ccc5c(c4)N(C(C)C)C(=O)CO5)CC3)cccc2n1,–
1.3,0.6,0.7,50.1,0.398,14,–,7.94,0.2,0,> 19000,> 19000,> 19000,> 19000,> 19000,Cc1ccc2c(OCCN3CCN(Cc4cc(F)c5c(c4)N(C)C(=O)CO5)CC3)cccc2n1,Kp [18]: 3.6
